Data on three molecules can be found in patent US4649131A, “Growth hormone releasing factor analogs” (Hoffmann-La Roche Inc., priority 1985, dated 1987).

No end group written: not given here.

The subject of one experiment is rat pituitary cells. Description: stimulation of growth hormone production in rat pituitary cells in tissue culture (RIA for rat growth hormone). It is filed as cell-based. The method, then: Biological activity of the synthetic GRF(1-44)NH2 was identical to the natural GRF(1-44)NH2 which was isolated from a human pancreatic tumor of an individual suffering from acrommegaly (Salk Institute standard hGRF-NH2 (NL-A-10)). The assay for biological activity, which is based on the ability to stimulate production of growth hormone in rat pituitary cells in tissue culture, was performed in the following manner.
Pituitaries from 30-40 male Sprague-Dawley rats (175 g) were removed aseptically after decapitation. The anterior lobes were collected, washed 3 times in sterile Hepes buffer (0.025M) (pH 7.35) and dispersed at 37° C. in 20-30 ml Hepes buffer (pH 7.35) containing collagenase (4 mg per ml) and Dispase (Protease grade II, 2 mg per ml). After gentle 100-110-min. vortexing and trituration by Pasteur pipette, the dispersed cells were separated by centrifugation (150×g, 4 min) and re-suspended in Hepes buffer containing neuraminidase ([…]), and 200 µg/ml ethylenediaminetetraacetic acid (EDTA) disodium salt pH 7.35, for 10 min. The cells were washed twice with plating medium and plated on multiwell-plates (1.5×10^5 cells per ml) using the following defined medium: F-12/DMEM/BGJ (6:3:1) (Gibco: 430-1700/430-1600/320-2591) with 2 g BSA/1., 2.38 g Hepes/1.50 mg PSN antibiotic mixture (Gibco Laboratories), 10 mg/l transferrin (Sigma T2252) with 1.83 gm NazHCO3/l (Baker 3506). The medium in each well was supplemented either with a sample of the novel GRF peptide or natural GRF(1-44)-NH2 at concentrations ranging from 0.8 to 200 fmol. per ml. of medium. Control wells contained no supplement. Plating was done with this medium added with 2% fetal calf serum to ensure rapid fixation of the cells. On the fourth day the cells were washed twice with the defined medium without fetal calf serum. Finally 900 μl of defined medium was added to each well plus 100 μl of the same medium containing each individual treatment, in triplicate. After 4 hours of incubation the medium was collected and diluted as required to conduct radioimmunoassay (RIAs) for rat growth hormone. […]

Experiment [1] concerns release of growth hormone. The settings on record: Rivier and Vale et al., Nature 300, 276-278 (1982); cited from earlier work.

Consider “YADAIFTNSYRKVLAQLSARKLLQDIMSR-NH2 [(Ala^15)GRF(1-29)NH2, [Ala^15]-hGRF(1-29)-NH2]”, for which the “potency compared to GRF(1-44)NH2” value with rat pituitary cells (relative to GRF(1-44)NH2, on a weight for weight basis, 4 hours of incubation) is listed as 4.1 times. Besides, the “potency compared to GRF(1-29)NH2” value in the experiment with rat pituitary cells (relative to unsubstituted shortened GRF(1-29)NH2, 4 hours of incubation) amounted to 5.1 times. Turning to `CC[C@H](C)[C@H](NC(=O)[C@H](C)NC(=O)[C@H](CC(=O)O)NC(=O)[C@H](C)NC(=O)[C@@H](N)Cc1ccc(O)cc1)C(=O)N[C@@H](Cc1ccccc1)C(=O)N[C@H](C(=O)N[C@@H](CC(N)=O)C(=O)N[C@@H](CO)C(=O)N[C@@H](Cc1ccc(O)cc1)C(=O)N[C@@H](CCCNC(=N)N)C(=O)N[C@@H](CCCCN)C(=O)N[C@H](C(=O)N[C@@H](CC(C)C)C(=O)NCC(=O)N[C@@H](CCC(N)=O)C(=O)N[C@@H](CC(C)C)C(=O)N[C@@H](CO)C(=O)N[C@@H](C)C(=O)N[C@@H](CCCNC(=N)N)C(=O)N[C@@H](CCCCN)C(=O)N[C@@H](CC(C)C)C(=O)N[C@@H](CC(C)C)C(=O)N[C@@H](CCC(N)=O)C(=O)N[C@@H](CC(=O)O)C(=O)N[C@H](C(=O)N[C@@H](CCSC)C(=O)N[C@@H](CO)C(=O)N[C@@H](CCCNC(=N)N)C(=O)N[C@@H](CCC(N)=O)C(=O)N[C@@H](CCC(N)=O)C(=O)NCC(=O)N[C@@H](CCC(=O)O)C(=O)N[C@@H](CO)C(=O)N[C@@H](CC(N)=O)C(=O)N[C@@H](CCC(N)=O)C(=O)N[C@@H](CCC(=O)O)C(=O)N[C@@H](CCCNC(=N)N)C(=O)NCC(=O)N[C@@H](C)C(=O)N[C@@H](CCCNC(=N)N)C(=O)N[C@@H](C)C(=O)N[C@@H](CCCNC(=N)N)C(=O)N[C@@H](CC(C)C)C(N)=O)[C@@H](C)CC)C(C)C)[C@@H](C)O` [synthetic GRF(1-44)NH2, GRF(1-44)-NH2], in the experiment on rat pituitary cells (versus natural GRF(1-44)NH2 isolated from a human pancreatic tumor (Salk Institute standard NL-A-10)), the “biological activity compared with natural GRF(1-44)NH2” value is listed as “identical”.

Consider GRF(1-29)-NH2, for which the “intrinsic activity and potency in vitro” value in experiment [1] was “full intrinsic activity and potency”.
